One assay concerns HIV-IIIb. The assay can be described thus: Antiviral assay in MT-4 cells infected with HIV-IIIb. It is filed as cell-based. The following applies: MT4, 120 h; MT-4 cells, HIV-IIIb, 5 days; read-out: EC50 Range MT-4. The procedure: See: Wolfe, etal J. Virol.
Antiviral Assays in MT2 and MT4 Cells
For the antiviral assay utilizing MT-2 cells, 50 μl of 2× test concentration of 5-fold serially diluted compound in culture medium with 10% FBS was added to each well of a 96-well plate (9 concentrations) in triplicate. MT-2 cells were infected with HIV-IIIb at a multiplicity of infection (m.o.i) of 0.01 for 3 hours. Fifty microliters of infected cell suspension in culture medium with 10% FBS (˜1.5×10^4 cells) was then added to each well containing 50 μl of diluted compound. The plates were then incubated at 37° C. for 5 days. For the antiviral assay utilizing MT-4 cells, 20 μl of 2× test concentration of 5-fold serially diluted compound in culture medium with 10% FBS was added to each well of a 384-well plate (7 concentrations) in triplicate. MT-4 cells were next mixed with HIV-IIIb at an m.o.i. of 0.1 and 20 μl of virus/cell mixture (˜2000 cells) was immediately added to each well containing 20 μl of diluted compound. The plates were then incubated at 37° C. for 5 days. After 5 days of incubation, 100 μl of CellTiter-Glo™ Reagent (catalog # G7571, Promega Biosciences, Inc., Madison, Wis.) was added to each well containing MT-2 cells and 40 μl to each well containing MT-4 cells. Cell lysis was carried out by incubating at room temperature for 10 min and then chemiluminescence was read.

The target in another assay is HIV integrase (Human immunodeficiency virus type 1 group M subtype B, UniProt P04585). As to the kind of experiment: biochemical.

pEC50, pIC50: −log10 of the molar value. Some results are limits rather than exact numbers.

Protocol for HIV integrase: Representative compounds of the invention were tested for biological activity by methods including anti-HIV assay, measuring inhibition of HIV-integrase strand transfer catalysis, and cytotoxicity.
HIV Integrase Assay (IC50 Determination)
The HIV Integrase assay is carried out in Reacti-Bind High Binding Capacity Streptavidin coated plates (Pierce # 15502) in 100 μl reactions. The wells of the plate are rinsed once with PBS. Each well is then coated at room temperature for 1 h with 100 μl of 0.14 μM Donor DNA with the following sequence:
After coating, the plate was washed twice with PBS. 3′processing of the Donor DNA is started by adding 80 μl of Integrase/buffer mixture (25 mM HEPES, pH 7.3, 12.5 mM DTT, 93.75 mM NaCl, 12.5 mM MgCl2, 1.25% Glycerol, 0.3125 uM integrase) to each well. 3′processing is allowed to proceed for 30 min at 37° C., after which, 10 μl of test compound and 10 μl of 2.5 uM DIG-labeled Target DNA with the following sequence:
are added to each well to allow strand transfer to proceed for 30 min at 37° C. The plate is then washed three times with 2×SSC for 5 min and rinsed once with PBS. For detection of integrated product, 100 μl of a 1/2000 dilution of HRP-conjugated anti-DIG antibody (Pierce #31468) are added to each well and incubated for 1 hour. The plate was then washed three times for 5 min each, with 0.05% Tween-20 in PBS. For signal development and amplification, 100 μl of SuperSignal ELISA Femto Substrate (Pierce #37075) are added to each well. Chemiluminescence (in relative light units) is read immediately at 425 nm in the SPECTRAmax GEMINI Microplate Spectrophotometer using the end point mode at 5 sec per well.
For IC50 determinations, eight concentrations of test compounds in a 1/2.2 dilution series are used.

A word on the pEC50: it is the EC50 on a negative log10 scale, so that one unit is a factor of ten. The pIC50 is −log10 of the IC50, conventionally taken in molar units. A low value points to a large IC50. In the case of `CN(c1c2c(c(O)c3ncccc13)C(=O)N(Cc1ccc(F)cc1)C2)S(=O)(=O)CCN1CCCCC1` [Compound 162, N-(7-(4-fluorobenzyl)-9-hydroxy-8-oxo-7,8-dihydro-6H-pyrrolo[3,4-g]quinolin-5-yl)-N-methyl-2-(piperidin-1-yl)ethanesulfonamide], the pEC50 in the assay on HIV-IIIb was 6.00 to 7.22. Moreover, the pIC50 on HIV integrase was 6.00 to 7.22.
Turning to `C[C@@H]1c2c(c(O)c3ncccc3c2N(C)S(C)(=O)=O)C(=O)N1Cc1ccc(F)cc1` (single isomer, unassigned) [Compound 76], the pEC50 in the assay with HIV-IIIb was greater than 7.22. In addition, the pIC50 against HIV integrase is greater than 7.22.
As for `CN(Cc1ccncc1)S(=O)(=O)N(C)c1c2c(c(O)c3ncccc13)C(=O)N(Cc1ccc(F)cc1)C2` [Compound 136, N-(7-(4-fluorobenzyl)-9-hydroxy-8-oxo-7,8-dihydro-6H-pyrrolo[3,4-g]quinolin-5-yl)-N-methyl-N′-methyl-N′-(pyridin-4-ylmethyl)sulfamide], in the assay with HIV-IIIb, the pEC50 was 6.00 to 7.22. At HIV integrase, the pIC50 is 6.00 to 7.22.
Regarding `CN(c1c2c(c(O)c3ncccc13)C(=O)N(Cc1ccc(F)cc1)C2)S(N)(=O)=O` [Compound 132, N-(7-(4-fluorobenzyl)-9-hydroxy-8-oxo-7,8-dihydro-6H-pyrrolo[3,4-g]quinolin-5-yl)-N-methylsulfamide], in the assay on HIV-IIIb, the pEC50 is greater than 7.22. Also, the pIC50 against HIV integrase was greater than 7.22.
As to `CN(c1c2c(c(O)c3ncccc13)C(=O)N(Cc1ccc(Cl)cc1)C2)S(C)(=O)=O` [Compound 183, N-(7-(4-chlorobenzyl)-9-hydroxy-8-oxo-7,8-dihydro-6H-pyrrolo[3,4-g]quinolin-5-yl)-N-methylmethanesulfonamide], the pEC50 in the assay with HIV-IIIb was greater than 7.22. On HIV integrase, this molecule gave a pIC50 of 6.00 to 7.22.
As for `CC1c2c(c(O)c3ncccc3c2N(C)S(C)(=O)=O)C(=O)N1Cc1ccc(F)cc1` (racemic) [Compound 74, N-(7-(4-fluorobenzyl)-9-hydroxy-6-(R and S)-methyl-8-oxo-7,8-dihydro-6H-pyrrolo[3,4-g]quinolin-5-yl)-N-methylmethanesulfonamide], in the assay on HIV-IIIb, the pEC50 was greater than 7.22. Moreover, the pIC50 against HIV integrase was greater than 7.22.
For the molecule `CNC(=O)c1cc(F)ccc1CN1Cc2c(c(O)c3ncccc3c2N(C)S(C)(=O)=O)C1=O` [Compound 88], in the assay on HIV-IIIb, the pEC50 was greater than 7.22. The molecule also had a pIC50 on HIV integrase of 6.00 to 7.22.
In the case of `CN(c1c2c(c(O)c3ncccc13)C(=O)N(Cc1ccc(F)cc1)C2)S(C)(=O)=O` [Compound 29, N-(7-(4-fluorobenzyl)-9-hydroxy-8-oxo-7,8-dihydro-6H-pyrrolo[3,4-g]quinolin-5-yl)-N-methylmethanesulfonamide], the pEC50 with HIV-IIIb is greater than 7.22. This molecule also gave a pIC50 against HIV integrase greater than 7.22.
With `CN(c1c2c(c(O)c3ncccc13)C(=O)N(Cc1ccncc1)C2)S(C)(=O)=O` [Compound 92, N-(9-hydroxy-8-oxo-7-(pyridin-4-ylmethyl)-7,8-dihydro-6H-pyrrolo[3,4-g]quinolin-5-yl)-N-methylmethanesulfonamide], the pEC50 in the assay on HIV-IIIb is less than 6.00. Further, the pIC50 on HIV integrase was less than 6.00.
With `CCC(CC)OC(=O)OCOc1c2c(c(N(C)S(C)(=O)=O)c3cccnc13)CN(Cc1ccc(F)cc1)C2=O` [Compound 32, (7-(4-fluorobenzyl)-5-(N-methylmethan-5-ylsulfonamido)-8-oxo-7,8-dihydro-6H-pyrrolo[3,4-g]quinolin-9-yloxy)methyl pentan-3-yl carbonate], the pEC50 with HIV-IIIb was 6.00 to 7.22. In addition, the pIC50 at HIV integrase is less than 6.00.
The like results for `O=C1c2c(c(N3CCNC3=O)c3cccnc3c2O)CN1Cc1ccc(F)cc1` [Compound 221, 7-(4-fluorobenzyl)-9-hydroxy-5-(2-oxoimidazolidin-1-yl)-6,7-dihydropyrrolo[3,4-g]quinolin-8-one] were, in that order, greater than 7.22 and greater than 7.22.
The like results for `CN(c1c2c(c(O)c3ncccc13)C(=O)N(Cc1ccc(F)cc1)C2O)S(C)(=O)=O` (single isomer, unassigned) [Compound 166, N-(7-(4-fluorobenzyl)-6,9-dihydroxy-8-oxo-7,8-dihydro-6H-pyrrolo[3,4-g]quinolin-5-yl)-N-methylmethanesulfonamide] were, in that order, greater than 7.22 and greater than 7.22.
The like results for `CN(c1c2c(c(O)c3ncccc13)C(=O)N(Cc1ccc(F)cc1)C2)S(=O)(=O)CCN1CCOCC1` [Compound 163, N-(7-(4-fluorobenzyl)-9-hydroxy-8-oxo-7,8-dihydro-6H-pyrrolo[3,4-g]quinolin-5-yl)-N-methyl-2-morpholinoethanesulfonamide] were, in that order, greater than 7.22 and greater than 7.22.
As to `CN(c1c2c(c(O)c3ncccc13)C(=O)N(Cc1ccc(F)cc1)C2)S(=O)(=O)CC(F)(F)F` [Compound 156, 2,2,2-trifluoro-N-(7-(4-fluorobenzyl)-9-hydroxy-8-oxo-7,8-dihydro-6H-pyrrolo[3,4-g]quinolin-5-yl)-N-methylethane-1-sulfonamide], the pEC50 with HIV-IIIb was 6.00 to 7.22. Further, on HIV integrase, the pIC50 was greater than 7.22.
For the molecule `CN(c1c2c(c(O)c3ncccc13)C(=O)N(Cc1ccc(F)cc1)C2)S(=O)(=O)c1ccc(N2CCOCC2)nc1` [Compound 159, N-(7-(4-fluorobenzyl)-9-hydroxy-8-oxo-7,8-dihydro-6H-pyrrolo[3,4-g]quinolin-5-yl)-N-methyl-6-morpholinopyridine-3-sulfonamide], the pEC50 in the assay on HIV-IIIb is 6.00 to 7.22. The pIC50 at HIV integrase is 6.00 to 7.22.
As for `CCN(CC)CCS(=O)(=O)N(C)c1c2c(c(O)c3ncccc13)C(=O)N(Cc1ccc(F)cc1)C2` [Compound 161, 2-(diethylamino)-N-(7-(4-fluorobenzyl)-9-hydroxy-8-oxo-7,8-dihydro-6H-pyrrolo[3,4-g]quinolin-5-yl)-N-methylethanesulfonamide], the pEC50 in the assay on HIV-IIIb was greater than 7.22. On HIV integrase, this molecule showed a pIC50 of 6.00 to 7.22.
With `CN(c1c2c(c(O)c3ncccc13)C(=O)N(Cc1ccc(F)cc1S(C)(=O)=O)C2)S(C)(=O)=O` [Compound 106, N-(7-(4-fluoro-2-(methylsulfonyl)benzyl)-9-hydroxy-8-oxo-7,8-dihydro-6H-pyrrolo[3,4-g]quinolin-5-yl)-N-methylmethanesulfonamide], the pEC50 in the assay with HIV-IIIb was greater than 7.22. In addition, at HIV integrase, the pIC50 was 6.00 to 7.22.
The like results for `CCOC(=O)N(C)c1c2c(c(O)c3ncccc13)C(=O)N(Cc1ccc(F)cc1)C2` [Compound 112, ethyl 7-(4-fluorobenzyl)-9-(hydroxy)-8-oxo-7,8-dihydro-6H-pyrrolo[3,4-g]quinolin-5-yl(methyl)carbamate] were, in that order, greater than 7.22 and greater than 7.22.
On to `CN(c1c2c(c(O)c3ncccc13)C(=O)N(Cc1ccc(F)cc1S(=O)(=O)N(C)C)C2)S(C)(=O)=O` [Compound 109, 5-fluoro-2-((9-(hydroxy)-5-(N-methylmethylsulfonamido)-8-oxo-6H-pyrrolo[3,4-g]quinolin-7(8H)-yl)methyl)-N,N-dimethylbenzenesulfonamide], for which the pEC50 in the assay on HIV-IIIb is greater than 7.22. For the same molecule, at HIV integrase, the pIC50 was 6.00 to 7.22.
The like results for `CN(c1c2c(c(O)c3ncccc13)C(=O)N(Cc1ccc(F)nc1)C2)S(C)(=O)=O` [Compound 97, N-(7-((6-fluoropyridin-3-yl)methyl)-9-hydroxy-8-oxo-7,8-dihydro-6H-pyrrolo[3,4-g]quinolin-5-yl)-N-methylmethanesulfonamide] were, in that order, 6.00 to 7.22 and 6.00 to 7.22.
Regarding `CN(c1c2c(c(O)c3ncccc13)C(=O)N(Cc1ccc(F)c(Cl)c1)C2)S(C)(=O)=O` [Compound 181, N-(7-(3-chloro-4-fluorobenzyl)-9-hydroxy-8-oxo-7,8-dihydro-6H-pyrrolo[3,4-g]quinolin-5-yl)-N-methylmethanesulfonamide], the pEC50 with HIV-IIIb is greater than 7.22. The molecule further showed a pIC50 at HIV integrase greater than 7.22.
Regarding `CC(=O)Nc1nc(C)c(S(=O)(=O)N(C)c2c3c(c(O)c4ncccc24)C(=O)N(Cc2ccc(F)cc2)C3)s1` [Compound 160, N-(5-(N-(7-(4-fluorobenzyl)-9-hydroxy-8-oxo-7,8-dihydro-6H-pyrrolo[3,4-g]quinolin-5-yl)-N-methylsulfamoyl)-4-methylthiazol-2-yl)acetamide], the pEC50 in the assay with HIV-IIIb is 6.00 to 7.22. For the same molecule, the pIC50 against HIV integrase is 6.00 to 7.22.
`COc1ccc(CN2Cc3c(c(O)c4ncccc4c3N(C)S(C)(=O)=O)C2=O)c(OC)c1` [Compound 143, N-(7-(2,4-dimethoxybenzyl)-9-hydroxy-8-oxo-7,8-dihydro-6H-pyrrolo[3,4-g]quinolin-5-yl)-N-methylmethanesulfonamide]: the pEC50 in the assay with HIV-IIIb is 6.00 to 7.22. In addition, on HIV integrase, the pIC50 was 6.00 to 7.22.
For `CS(=O)(=O)Nc1c2c(c(O)c3ncccc13)C(=O)N(Cc1ccc(F)cc1)C2` [Compound 125, N-(7-(4-fluorobenzyl)-9-hydroxy-8-oxo-7,8-dihydro-6H-pyrrolo[3,4-g]quinolin-5-yl)methanesulfonamide], in the assay on HIV-IIIb, the pEC50 was 6.00 to 7.22. This molecule gave a pIC50 against HIV integrase greater than 7.22.
The like results for `CC(C)C(=O)N(C)c1c2c(c(O)c3ncccc13)C(=O)N(Cc1ccc(F)cc1)C2` [Compound 69, N-(7-(4-fluorobenzyl)-9-hydroxy-8-oxo-7,8-dihydro-6H-pyrrolo[3,4-g]quinolin-5-yl)-N-methylisobutyramide] were, in that order, greater than 7.22 and greater than 7.22.

The record behind these values is US20070072831A1, “Integrase inhibitor compounds” (GILEAD SCIENCES, INC., priority 2005, published 2007).
